What was measured:
[1] = Impedance measurements of supported bolalipid membranes on Au electrodes
Procedure: The effect of GA surface density on supported membrane impedance was determined using electrodes that had been coated with supported bolalipids by pretreatment with 2 prior to immersion for 24 hours into sonicated 1-GA vesicles containing varying amounts of GA. The 1-GA vesicle dispersions were prepared by sonicating dry 1-GA films in water (nominal GA:bolalipid molar ratios ranging from 1:500-1:50; 2 mM total lipid concentration). […] This observation is consistent with ^23Na NMR ion flux measurements made previously in our laboratory for gramicidin-containing 1 vesicles.
The effects of gramicidin loading on supported bolalipid membrane electrode impedance was further investigated in a sequential deposition experiment (FIG. 10). Adsorption of 2 onto Au electrodes for 1 hour to give partial surface coverage produced significant increases in impedance. Immersion of these pretreated electrodes into bolalipid vesicle solutions where gramicidin was either absent or present (i.e. 1 and 1-GA vesicles, respectively) produced membrane coated electrodes that had substantially different impedance characteristics in 10^−1-10^2 Hz frequency range. […]

[2] = Capacitance and single channel measurements of C20 bolalipid membranes; conditions: C20 bolalipid monolayer

gramicidin
impedance of 2-treated electrode after immersion in 1-GA membrane solution ([1]; 1:100 molar ratio GA:1, 24 hours, compared with 2 or 2-1 coatings): observed impedances were lower
effect of GA surface density on supported membrane impedance ([1]; GA:bolalipid molar ratios 1:500-1:50, 1-10^3 Hz range): impedance decreases with increasing GA concentration
ion flux across the membrane [2]: resulted in ion flux across the membrane

Reference: patent US7374944B2, “Device and bioanalytical method utilizing asymmetric biofunctionalized membrane” (Purdue Research Foundation, priority 2001, dated 2008)
